# The supplement of paper PMC10307832
# Key:
# Assay in all cases: relative viability (nuclei count vs DMSO), 5 days (fraction); higher = more cells survive
# NCI-H2009 = tested on: NCI-H2009
# In short: (§1)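 Relative viability was taken as the ratio of nuclei in treated wells to nuclei in vehicle wells. Lung cancer cell lines in 1536-well plates received compounds by pin tool one day after seeding, either one drug alone or a fixed anchor-drug dose plus five library-drug doses (not always all listed) in √10 steps. Nuclei were counted on 4× images after 5 days of treatment, and values are medians of duplicate plates.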
# SK-LU-1 = tested on: SK-LU-1
# In short: as §1
# NCI-H2228 = tested on: NCI-H2228
# In short: as §1
# HOP-62 = tested on: HOP-62
# In short: as §1
# A-427 = tested on: A-427
# In short: as §1
# NCI-H1975 = tested on: NCI-H1975
# In short: as §1
# NCI-H1792 = tested on: NCI-H1792
# In short: as §1
# EMC-BAC-2 = tested on: EMC-BAC-2
# In short: as §1
# CAL-12T = tested on: CAL-12T
# In short: as §1
# HARA = tested on: HARA
# In short: as §1
# HCC-827 = tested on: HCC-827
# In short: as §1
# NCI-H460 = tested on: NCI-H460
# In short: as §1
# NCI-H23 = tested on: NCI-H23
# In short: as §1
# SW 1573 = tested on: SW 1573
# In short: as §1
# NCI-H1355 = tested on: NCI-H1355
# In short: as §1
# NCI-H1437 = tested on: NCI-H1437
# In short: as §1
# NCI-H1915 = tested on: NCI-H1915
# In short: as §1
# NCI-H727 = tested on: NCI-H727
# In short: as §1
# HCC-366 = tested on: HCC-366
# In short: as §1
# NCI-H1755 = tested on: NCI-H1755
# In short: as §1
# COR-L 105 = tested on: COR-L 105
# In short: as §1
# LCLC-103H = tested on: LCLC-103H
# In short: as §1
compound,measurement,setting,value
CC1(C)CCC(c2ccc(Cl)cc2)=C(CN2CCN(c3ccc(C(=O)NS(=O)(=O)c4ccc(N[C@H](CCN5CCOCC5)CSc5ccccc5)c(S(=O)(=O)C(F)(F)F)c4)cc3)CC2)C1 [Navitoclax] + C[C@@H](Oc1cc(-c2cnn(C3CCNCC3)c2)cnc1N)c1c(Cl)ccc(F)c1Cl [Crizotinib] (partner 1 µM),relative viability,NCI-H2009; first compound 0.005 µM,0.972
same,relative viability,NCI-H2009; first compound 0.01581 µM,1.05
same,relative viability,NCI-H2009; first compound 0.05 µM,1.1
same,relative viability,NCI-H2009; first compound 0.1581 µM,1.13
same,relative viability,NCI-H2009; first compound 0.5 µM,1.05
same,relative viability,SK-LU-1; first compound 0.005 µM,0.846
same,relative viability,SK-LU-1; first compound 0.01581 µM,0.975
same,relative viability,SK-LU-1; first compound 0.05 µM,1.14
same,relative viability,SK-LU-1; first compound 0.1581 µM,0.894
same,relative viability,SK-LU-1; first compound 0.5 µM,0.834
same,relative viability,NCI-H2228; first compound 0.005 µM,0.633
same,relative viability,NCI-H2228; first compound 0.01581 µM,0.553
same,relative viability,NCI-H2228; first compound 0.05 µM,0.573
same,relative viability,NCI-H2228; first compound 0.1581 µM,0.454
same,relative viability,NCI-H2228; first compound 0.5 µM,0.52
same,relative viability,HOP-62; first compound 0.005 µM,0.965
same,relative viability,HOP-62; first compound 0.01581 µM,1.09
same,relative viability,HOP-62; first compound 0.05 µM,0.926
same,relative viability,HOP-62; first compound 0.1581 µM,0.917
same,relative viability,HOP-62; first compound 0.5 µM,1.03
same,relative viability,A-427; first compound 0.005 µM,0.828
same,relative viability,A-427; first compound 0.01581 µM,0.948
same,relative viability,A-427; first compound 0.05 µM,0.652
same,relative viability,A-427; first compound 0.1581 µM,1.01
same,relative viability,A-427; first compound 0.5 µM,0.915
same,relative viability,NCI-H1975; first compound 0.005 µM,0.836
same,relative viability,NCI-H1975; first compound 0.01581 µM,1.07
same,relative viability,NCI-H1975; first compound 0.05 µM,1.12
same,relative viability,NCI-H1975; first compound 0.1581 µM,0.921
same,relative viability,NCI-H1975; first compound 0.5 µM,0.887
same,relative viability,NCI-H1792; first compound 0.005 µM,0.996
same,relative viability,NCI-H1792; first compound 0.01581 µM,1.04
same,relative viability,NCI-H1792; first compound 0.05 µM,0.911
same,relative viability,NCI-H1792; first compound 0.1581 µM,1
same,relative viability,NCI-H1792; first compound 0.5 µM,0.946
same,relative viability,EMC-BAC-2; first compound 0.005 µM,0.716
same,relative viability,EMC-BAC-2; first compound 0.01581 µM,0.689
same,relative viability,EMC-BAC-2; first compound 0.05 µM,0.743
same,relative viability,EMC-BAC-2; first compound 0.1581 µM,0.703
same,relative viability,EMC-BAC-2; first compound 0.5 µM,0.701
same,relative viability,CAL-12T; first compound 0.005 µM,0.589
same,relative viability,CAL-12T; first compound 0.01581 µM,0.653
same,relative viability,CAL-12T; first compound 0.05 µM,0.725
same,relative viability,CAL-12T; first compound 0.1581 µM,0.744
same,relative viability,CAL-12T; first compound 0.5 µM,0.536
same,relative viability,HARA; first compound 0.005 µM,1.09
same,relative viability,HARA; first compound 0.01581 µM,1.16
same,relative viability,HARA; first compound 0.05 µM,0.944
same,relative viability,HARA; first compound 0.1581 µM,0.907
same,relative viability,HARA; first compound 0.5 µM,1.01
same,relative viability,HCC-827; first compound 0.005 µM,0.96
same,relative viability,HCC-827; first compound 0.01581 µM,0.962
same,relative viability,HCC-827; first compound 0.05 µM,0.966
same,relative viability,HCC-827; first compound 0.1581 µM,0.958
same,relative viability,HCC-827; first compound 0.5 µM,0.935
same,relative viability,NCI-H460; first compound 0.005 µM,0.805
same,relative viability,NCI-H460; first compound 0.01581 µM,0.915
same,relative viability,NCI-H460; first compound 0.05 µM,0.979
same,relative viability,NCI-H460; first compound 0.1581 µM,0.894
same,relative viability,NCI-H460; first compound 0.5 µM,0.874
same,relative viability,NCI-H23; first compound 0.005 µM,0.519
same,relative viability,NCI-H23; first compound 0.01581 µM,0.494
same,relative viability,NCI-H23; first compound 0.05 µM,0.516
same,relative viability,NCI-H23; first compound 0.1581 µM,0.516
same,relative viability,NCI-H23; first compound 0.5 µM,0.545
same,relative viability,SW 1573; first compound 0.005 µM,0.716
same,relative viability,SW 1573; first compound 0.01581 µM,0.794
same,relative viability,SW 1573; first compound 0.05 µM,0.674
same,relative viability,SW 1573; first compound 0.1581 µM,0.687
same,relative viability,SW 1573; first compound 0.5 µM,0.981
same,relative viability,NCI-H1355; first compound 0.005 µM,1.03
same,relative viability,NCI-H1355; first compound 0.01581 µM,1.15
same,relative viability,NCI-H1355; first compound 0.05 µM,1.02
same,relative viability,NCI-H1355; first compound 0.1581 µM,1.05
same,relative viability,NCI-H1355; first compound 0.5 µM,1.03
same,relative viability,NCI-H1437; first compound 0.005 µM,0.916
same,relative viability,NCI-H1437; first compound 0.01581 µM,0.93
same,relative viability,NCI-H1437; first compound 0.05 µM,0.892
same,relative viability,NCI-H1437; first compound 0.1581 µM,0.961
same,relative viability,NCI-H1437; first compound 0.5 µM,0.873
same,relative viability,NCI-H1915; first compound 0.005 µM,0.915
same,relative viability,NCI-H1915; first compound 0.01581 µM,0.881
same,relative viability,NCI-H1915; first compound 0.05 µM,0.877
same,relative viability,NCI-H1915; first compound 0.1581 µM,0.879
same,relative viability,NCI-H1915; first compound 0.5 µM,0.858
same,relative viability,NCI-H727; first compound 0.005 µM,0.692
same,relative viability,NCI-H727; first compound 0.01581 µM,1.11
same,relative viability,NCI-H727; first compound 0.1581 µM,0.797
same,relative viability,NCI-H727; first compound 0.5 µM,0.73
same,relative viability,HCC-366; first compound 0.005 µM,0.456
same,relative viability,HCC-366; first compound 0.01581 µM,0.635
same,relative viability,HCC-366; first compound 0.05 µM,0.0527
same,relative viability,HCC-366; first compound 0.1581 µM,0.514
same,relative viability,HCC-366; first compound 0.5 µM,0.562
same,relative viability,NCI-H1755; first compound 0.005 µM,0.823
same,relative viability,NCI-H1755; first compound 0.01581 µM,0.903
same,relative viability,NCI-H1755; first compound 0.05 µM,0.715
same,relative viability,NCI-H1755; first compound 0.1581 µM,0.859
same,relative viability,NCI-H1755; first compound 0.5 µM,0.89
same,relative viability,COR-L 105; first compound 0.005 µM,0.651
same,relative viability,COR-L 105; first compound 0.01581 µM,0.98
same,relative viability,COR-L 105; first compound 0.05 µM,0.773
same,relative viability,COR-L 105; first compound 0.1581 µM,0.927
same,relative viability,COR-L 105; first compound 0.5 µM,0.699
same,relative viability,LCLC-103H; first compound 0.005 µM,1.05
same,relative viability,LCLC-103H; first compound 0.01581 µM,0.979
same,relative viability,LCLC-103H; first compound 0.05 µM,0.951
same,relative viability,LCLC-103H; first compound 0.1581 µM,1.12
same,relative viability,LCLC-103H; first compound 0.5 µM,0.976
